These results are taken from PMC3348135, “Identification of New Agonists and Antagonists of the Insect Odorant Receptor Co-Receptor Subunit” (PLoS ONE, 2012).

Molecules are shown by their SMILES. Read-outs that look alike come from different tables or passages of the source.

Data set [1] deals with T1, Dmel\Orco + Dmel\Or35a (Drosophila melanogaster, UniProt Q9VNB5).
T1 construct: expressed in transfected cells; host or cells: Xenopus laevis oocytes (cRNA injection, pGEMHE)
T1 sequence (Q9VNB5 1-486): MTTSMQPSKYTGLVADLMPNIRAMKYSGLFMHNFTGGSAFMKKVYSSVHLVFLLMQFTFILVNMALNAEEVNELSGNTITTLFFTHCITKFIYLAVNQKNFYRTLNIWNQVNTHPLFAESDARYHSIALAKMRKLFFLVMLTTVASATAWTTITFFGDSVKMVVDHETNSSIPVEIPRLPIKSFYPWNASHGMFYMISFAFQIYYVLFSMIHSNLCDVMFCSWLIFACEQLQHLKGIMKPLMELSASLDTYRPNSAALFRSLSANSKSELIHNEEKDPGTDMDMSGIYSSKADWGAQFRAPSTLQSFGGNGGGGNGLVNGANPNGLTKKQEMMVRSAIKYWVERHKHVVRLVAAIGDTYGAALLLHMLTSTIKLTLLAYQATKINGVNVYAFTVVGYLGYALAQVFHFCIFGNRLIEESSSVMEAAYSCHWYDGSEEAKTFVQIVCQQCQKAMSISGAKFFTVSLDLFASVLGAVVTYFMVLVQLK
T1 sequence (Q9V3Q2 1-409 partner): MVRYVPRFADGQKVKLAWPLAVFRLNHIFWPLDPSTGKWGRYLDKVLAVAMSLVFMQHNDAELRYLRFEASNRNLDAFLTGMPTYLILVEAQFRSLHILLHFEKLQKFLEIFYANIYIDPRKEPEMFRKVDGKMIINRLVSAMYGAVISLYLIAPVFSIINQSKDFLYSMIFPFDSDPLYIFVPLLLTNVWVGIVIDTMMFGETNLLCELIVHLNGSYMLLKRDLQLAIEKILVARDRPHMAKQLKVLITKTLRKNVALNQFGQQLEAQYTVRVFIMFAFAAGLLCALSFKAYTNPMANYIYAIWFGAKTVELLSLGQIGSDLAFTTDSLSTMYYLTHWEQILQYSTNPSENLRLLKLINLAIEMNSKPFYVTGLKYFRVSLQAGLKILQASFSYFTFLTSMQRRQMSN
As to the kind of experiment: Agonist activation of Dmel\Orco + Dmel\Or35a in Xenopus oocytes, two-electrode voltage clamp. The note with it: read-out: Response amplitude as percentage of response to 100 µM OLC3, Dmel\Orco + Dmel\Or35a. Format: cell-based. The procedure: (§1) Oocytes were surgically removed from mature Xenopus laevis frogs. Follicle cells were removed by treatment with Collagenase B (Boehringer Mannhem) for 2 hours at room temperature. Capped cRNA encoding each DmOR subunit was generated using mMessage mMachine kits (Ambion). For heteromeric ORs, 25 ng of cRNA encoding each OR subunit was injected into Stage V-VI Xenopus oocytes. For expression of Orco alone, 50 ng of cRNA was injected. Oocytes were incubated at 18°C in Barth’s saline (in mM: 88 NaCl, 1 KCl, 2.4 NaHCO3, 0.3 CaNO3, 0.41 CaCl2, 0.82 MgSO4, 15 HEPES, pH 7.6, and 150 µg/ml ceftazidime) for 2–5 days prior to electrophysiological recording.
(§2) Odorant and Orco ligand induced currents were recorded under two-electrode voltage clamp in Xenopus laevis oocytes expressing ORs, using an automated parallel electrophysiology system (OpusExpress 6000A; Molecular Devices). Oocytes were perfused with ND96 (in mM: 96 NaCl, 2 KCl, 1 CaCl2, 1 MgCl2, 5 HEPES, pH 7.5). Odorant stock solutions (0.5 or 1 M) and Orco ligand stock solutions (100 mM) were prepared in DMSO and diluted in ND96. Unless otherwise noted, applications were for 60 sec at a flow rate of 1.0 ml/min, with extensive washing in ND96 (9 or 20 min at 4.6 ml/min) between applications. Micropipettes were filled with 3 M KCl and had resistances of 0.2−2.0 MΩ. The holding potential was −70 mV. Current responses, filtered (4-pole, Bessel, low pass) at 20 Hz (−3 db) and sampled at 100 Hz, were captured and stored using OpusXpress 1.1 software (Molecular Devices).
(§3) Initial analysis of electrophysiological data was done using Clampfit 9.1 software (Molecular Devices). Curve fitting and statistical analyses were done using Prism 5 (Graphpad). Concentration-response data were fit to the equation: I = Imax/(1+(EC50/X)^n) where I represents the current response at a given concentration of odorant, X; Imax is the maximal response; EC50 is the concentration of agonist yielding a half maximal response; n is the apparent Hill coefficient. Concentration-inhibition data were fit to the equation: I = Imax/(1+(X/IC50)^n) where I represents the current response at a given concentration of inhibitor, X; Imax is the maximal response in the absence of inhibitor; IC50 is the concentration of inhibitor present that still allows a half maximal response from odorant; n is the apparent Hill coefficient. Statistical significance was assessed using a two-tailed unpaired t test, an F test, or a one-way analysis of variance followed by the Bonferroni’s post-test, as appropriate.
A general note: Two-electrode voltage clamp holds a large cell at a set potential and records current.

The target of a further data set is Cqui\Orco + Cqui\Or10 (Culex quinquefasciatus, UniProt D5LMR7+Q309I4). As to the kind of experiment: Activation of Cqui\Orco + Cqui\Or10 in Xenopus oocytes, two-electrode voltage clamp. In kind it is cell-based. The following applies: 100 µM compound; mean ± SEM, n=3-8; read-out: Response amplitude as percentage of response to 100 µM OLC3, Cqui\Orco + Cqui\Or10. The protocol:
as §1, §2, §3

A further data set relates to Onub\Orco + Onub\Or1. As to the kind of experiment: Agonist activation of Onub\Orco + Onub\Or1 in Xenopus oocytes, two-electrode voltage clamp. Format: cell-based, Ostrinia nubilalis. The note with it: 100 µM compound; mean ± SEM, n=3-8.
Data set [2] addresses T1, Dmel\Orco + Dmel\Or35a. As to the kind of experiment: Inhibition of OLC12 activation of Dmel\Orco + Dmel\Or35a in Xenopus oocytes. Format: cell-based. The procedure:
as §1, §2
In inhibition assays, oocytes were exposed to 60 sec applications of OLC12 with 9 min washes between applications (Fig. 3 and 4) or 60 sec applications of odorant with 20 min washes between applications (Fig. 5). Oocytes were then exposed to a 90 sec application of antagonist candidate, immediately followed by a 60 sec co-application of antagonist candidate and OLC12 or odorant. Oocytes were then exposed to a final 60 sec application of OLC12 or odorant. The current response in the presence of antagonist candidate was compared to the preceding response(s) to OLC12 (or odorant) alone.
as §3

The target in data set [3] is T1, Dmel\Orco + Dmel\Or35a. As to the kind of experiment: Inhibition of odorant (hexanol) activation of Dmel\Orco + Dmel\Or35a in Xenopus oocytes. In kind it is cell-based. The following applies: 3 µM hexanol; OLC2 100 µM, OLC15 50 µM, OLC20 200 µM. The protocol: as §1, §2
In inhibition assays, oocytes were exposed to 60 sec applications of OLC12 with 9 min washes between applications (Fig. 3 and 4) or 60 sec applications of odorant with 20 min washes between applications (Fig. 5). […]
Initial analysis of electrophysiological data was done using Clampfit 9.1 software (Molecular Devices). […] Statistical significance was assessed using a two-tailed unpaired t test, an F test, or a one-way analysis of variance followed by the Bonferroni’s post-test, as appropriate.

Data set [4] in a line: Solubility in recording solution (observation). Format: physicochemical. The following applies: aqueous recording solution, higher concentrations (OLC2: above 100 µM). The protocol:
as §2

Where [5] appears, read: activated by 10 µM OLC12 (EC25), read-out: IC50, Dmel\Orco + Dmel\Or35a (activated by 10 µM OLC12).

Sequence of Cqui\Orco + Cqui\Or10 (D5LMR7 entry or part of it): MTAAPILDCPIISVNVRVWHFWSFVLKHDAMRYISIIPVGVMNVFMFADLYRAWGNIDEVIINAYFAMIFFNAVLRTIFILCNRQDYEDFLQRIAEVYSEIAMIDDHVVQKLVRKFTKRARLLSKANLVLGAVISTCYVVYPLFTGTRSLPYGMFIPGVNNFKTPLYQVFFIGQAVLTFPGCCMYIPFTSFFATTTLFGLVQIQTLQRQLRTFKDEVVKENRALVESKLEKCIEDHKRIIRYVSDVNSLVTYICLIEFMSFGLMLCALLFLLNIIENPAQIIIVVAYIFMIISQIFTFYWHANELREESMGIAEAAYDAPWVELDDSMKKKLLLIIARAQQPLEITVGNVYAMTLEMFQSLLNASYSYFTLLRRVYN
Sequence of Cqui\Orco + Cqui\Or10 (Q309I4 entry or part of it): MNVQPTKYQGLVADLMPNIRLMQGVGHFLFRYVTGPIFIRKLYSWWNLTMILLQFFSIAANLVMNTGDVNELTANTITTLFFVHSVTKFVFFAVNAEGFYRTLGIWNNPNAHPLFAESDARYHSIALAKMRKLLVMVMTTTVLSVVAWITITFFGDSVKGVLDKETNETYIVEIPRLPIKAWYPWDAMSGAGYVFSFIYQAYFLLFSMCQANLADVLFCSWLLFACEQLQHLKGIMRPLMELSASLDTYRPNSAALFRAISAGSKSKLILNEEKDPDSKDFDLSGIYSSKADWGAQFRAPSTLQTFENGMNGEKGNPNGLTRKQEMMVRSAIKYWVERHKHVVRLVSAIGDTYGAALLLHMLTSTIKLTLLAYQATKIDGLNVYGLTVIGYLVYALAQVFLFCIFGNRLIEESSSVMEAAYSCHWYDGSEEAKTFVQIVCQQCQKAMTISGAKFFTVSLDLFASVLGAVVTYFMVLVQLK

`CCc1ccc(NC(=O)CSc2nnc(-c3ccccn3)n2CC)cc1` [OLC2]: the Emax at 100 µM on Dmel\Orco + Dmel\Or35a [1] came out at 2 ± 1%; at Cqui\Orco + Cqui\Or10 it was 0%. Also, the “Response amplitude as percentage of response to 100 µM OLC3, Onub\Orco + Onub\Or1” value with Onub\Orco + Onub\Or1 came out at 9 ± 2%. In addition, the 50% inhibitory concentration (IC50) on Dmel\Orco + Dmel\Or35a [2] (setting [5]) amounted to 24 ± 5 µM. In addition, the “Inhibition of the hexanol response of Dmel\Orco+Dmel\Or35a” value on Dmel\Orco + Dmel\Or35a [3] is “did not inhibit”. Also, the Solubility entry in data set [4] was “poor solubility”.
Consider `CCCCc1ccc(NC(=O)CSc2nnc(-c3ccccn3)n2CC)cc1` [OLC15], for which the Emax at 100 µM on Dmel\Orco + Dmel\Or35a [1] and on Cqui\Orco + Cqui\Or10 was 0% each time. For the same compound, the IC50 on Dmel\Orco + Dmel\Or35a [2] (setting [5]) was determined as 15 ± 1 µM; at Dmel\Orco + Dmel\Or35a [2] (activated by 100 µM OLC12, read-out: IC50, Dmel\Orco + Dmel\Or35a activated by 100 µM OLC12), 67 ± 7 µM. For the same compound, the “Inhibition of the hexanol response of Dmel\Orco+Dmel\Or35a” value at Dmel\Orco + Dmel\Or35a [3] was “substantial inhibition”.

For orientation: IC50 means the concentration that inhibits the measured activity by half.
